Experimental data: patent publication US10918640B2, “Azetidine derivatives” (Vernalis (R&D) Ltd., priority 2008, dated 2021)

Tested on: carrageenan-induced thermal hypersensitivity
Assay: Rat carrageenan induced thermal hyperalgesia model of inflammatory pain
Type: in vivo
Description: Rat Carrageenan Induced Thermal Hyperalgesia Model of Inflammatory Pain.
Male Wistar rats were assessed for thermal pain sensitivity by applying a focused light beam onto the hind paws and recording the time to paw withdrawal, before and after local intraplantar administration of carrageenan. After 3 h. thermal pain sensitivity was reassessed in treated and untreated hind paws prior to dosing with test compound or vehicle. Indomethacin was administered as a positive control.
Male Sprague Dawley rats were tail-marked, and acclimatized to the plantar boxes on 3 separate occasions (6, 5 and 1 day prior to the test day) for at least 5 min on each occasion. […] The latency to withdraw both left and right hindpaws from the heat source was determined on 2 occasions (3 min apart). The mean across the 2 challenges was recorded as the baseline for each animal. Rats 18 and 30 were not used in the study as they had very high baseline readings, and they were replaced by 61 and 63. […]
For example, the compound of Example 13 above was tested as follows: Rats were dosed with intraplantar carrageenan at t=0; the compound of Example 13 (1, 3 & 10 mg/kg po) or vehicle (5% EtOH: 95% (1% methylcellulose in water) at t=2 h; indomethacin (10 mg/kg ip) or vehicle at t=2.5 h and thermal sensitivity was measured at t=3 h. Thus all rats received both oral and ip dosing.

`O=C(Nc1cccnn1)N1CC(Oc2ccc(-c3ccccc3)cn2)C1` [Example 13, 3-(5-Phenyl-pyridin-2-yloxy)-azetidine-1-carboxylic acid pyridazin-3-ylamide] was tested, and the “pain sensitivity relative to normal levels” value (1, 3, 10 mg/kg p.o., rat) was “did not reduce pain sensitivity to below normal levels” and the “statistical significance of inhibition cf. vehicle/carrageenan group” value (at 3 and 10 mg/kg doses p.o., one way ANOVA followed by Newman-Keuls post hoc tests) was “reached statistical significance”.
